Assay results reported in patent publication US20220204577A1, “Synthetic Peptides With Affinity for the Interleukin-10 Receptor, Pharmaceutical Composition and Use Thereof as Immunomodulators for Treating Autoimmune, Inflammatory or Allergic Diseases” (Universidade Federal de Uberlândia, priority 2019, published 2022).
Positions of bridges follow the written chain, without caps; N, C: chain ends. No end group written: not given here.

How the values were obtained:
IFN signaling pathway = IFN signaling pathway (SEAP) in Jurkart-Dual reporter cells, peptide pre-treatment then IFN-α; type: cell-based; conditions: peptide 1 hour, then IFN-α (104 EU/ml); 10 μM; 12 hours
Procedure: Therefore, we cannot confirm whether they were able to affect the activation pathway (FIGS. 6A, B, and C) in the same or better way than the negative control (rIL-10). In the assays shown in FIGS. 5 (A, B, and C) and 6 (A, B, and C), IFN expression was analyzed in Jurkart-Dual reporter cells. In the assays shown in FIGS. 5 A, B, and C, cells were treated with peptides for 1 hour followed by the addition of IFN-α (104 EU/ml). Secreted Embryonic Alkaline Phosphatase (SEAP) production was measured after 12 hours of treatment (FIG. 5A), 24 hours of treatment (FIG. 5B), and 48 hours of treatment (FIG. 5C). In the assays shown in FIGS. 6 A, B, and C, cells were treated with IFN-α (104 EU/ml) for 1 hour, and then peptides were added. SEAP production was measured after (D) 12 hours of treatment (E) 24 hours of treatment, and (F) 48 hours of treatment. IFN-α (104 EU/mL) was used as a positive control and rIL-10 (0.4 ng/mL) as a negative control. * P<0.05.

[1] = system: NFκB, IFN, or TLR4 signaling pathways; test: Reporter cell lines treated with peptides alone (no activating molecule); type: cell-based; conditions: various concentrations, 12, 24 and 48 hours
Procedure: To investigate the ability of the peptides to interfere with the NFkB, IFN, and TLR4 pathways, reporter cell lines were used. To analyze whether the isolated peptides (without activation molecules) could induce any type of activation, the isolated peptides were tested in the cell lines during 12, 24, and 48 hours of treatment. […] As an example, FIGS. 2A, 2B, and 2C show an analysis of NFkB expression after stimulation with the synthesized peptides described in this report. The cells were treated with the synthesized peptides Pep 1, Pep 2, Pep 3, and Pep 4 at various concentrations for 12, 24, and 48 hours, without activating molecules. Luciferase was then measured after 12 hours of treatment (FIG. 2A), 24 hours of treatment (FIG. 2B), and 48 hours of treatment (FIG. 2C). […] TNF-α (200 ng/mL) was used as a positive control.

TLR4 signaling pathway [2] = test: TLR4 signaling pathway (SEAP) in HEK cells, LPS pre-treatment then peptides; type: cell-based; conditions: LPS then peptide, 12 hours
Procedure: (§1) HEK cells were used to investigate the ability of the peptides to reduce activation of the TLR4 signaling pathway after 12 hours of treatment.
(§2) In the assay shown in FIG. 7A, the cells were treated with peptides for 1 hour, then LPS (100 ng/ml) was added. SEAP production was measured after 12 hours of treatment. In the assay shown in FIG. 7B, the cells were treated with LPS (100 ng/ml) for 1 hour, then the peptides were added. SEAP production was measured after 12 hours of treatment. LPS (100 ng/mL) was used as positive control and IL-10 (0.4 ng/mL) as negative control. * P<0.05; ** P<0.005; *** P<0.0005.

[3] = Dynamic Light Scattering (DLS), aggregation behavior in solution; type: physicochemical
Procedure: The aggregation behavior of peptides Pep 1, Pep 2, Pep 3, and Pep 4 in solution was determined by Dynamic Light Scattering (DLS), as shown in FIG. 1E. All synthetic peptides were approximately 100% monomeric in solution. The measured hydrodynamic radius of the peptides was similar for Pep 1 (0.82 nm), Pep 2 ([…]), Pep 3 (0.79 nm), and Pep 4 (0.86 nm).

NFκB = test: NFkB expression in Jurkart-Dual reporter cells, peptide pre-treatment then TNF-α; type: cell-based; conditions: peptide 1 hour, then TNF-α 200 ng/ml; all concentrations tested; 12, 24 and 48 hours
Procedure: The assay was then performed using TNF-α as the activating molecule not only in the control, but after a pre-treatment with the synthesized peptides Pep 1, Pep 2, Pep 3, and Pep 4 at various concentrations. […] In the assays shown in FIGS. 3 A, B, and C, NFkB expression analysis was performed in Jurkart-Dual reporter cells. Cells were treated with peptides for 1 hour and TNF-α (200 ng/ml) was added. Luciferase was measured after 12 hours of treatment (FIG. 3A), 24 hours of treatment (FIG. 3B), and 48 hours of treatment (FIG. 3C).

cell line J774 = test: Cytokines production after treatment of cell line J774; type: cell-based; parameters: levels of MCP-1: dose or concentration left out as unconfirmed
Procedure: After 24 hours of treatment, the produced amounts of IL-6, MCP-1, and TNF-α were measured. […] In contrast, when cells were treated with a composition of Pep 1 followed by incubation with LPS (1 mg/ml) for 24 hours to induce an inflammatory response, the peptide was able to decrease the production of IL-6, MCP-1, and TNF-α.
Each decrease was significant compared to cells treated with LPS alone (positive control). * P<0.05; ** P<0.005; *** P<0.0005

[4] = system: T cells from allergic patients; test: Proliferation of T cells from allergic patients; type: cell-based; conditions: 10 μM; 24 hours; Bet v 1 positive control
Procedure: To confirm the ability of the synthesized peptides to decrease dendritic cell activation, a composition containing Pep 1 at a concentration of 10 μM was chosen and the proliferation of T cells from allergic patients was measured after 24 hours of treatment. […] Cells were treated with Bet v 1 as a positive control, and an irrelevant peptide (IR) was used as a negative control.

[5] = system: mouse basophilic leukemia cells transfected with the human FcεRI IgE receptor (hRBL); test: IgE-mediated release of β-hexosaminidase (basophil degranulation) in hRBL cells; type: cell-based; conditions: 1 μM; versus cells treated with Bet v1 alone; serum from seven birch pollen-allergic donors
Procedure: The effect of Pep 1 on IgE-mediated release was studied using mouse basophilic leukemia cells transfected with the human FcεRI IgE receptor (hRBL). The hRBL cells were sensitized with serum from seven patients allergic to birch pollen. The cells were stimulated with the antigen and its interaction with immobilized IgEs resulting in the release of β-hexosaminidase.
When cells were treated with a composition containing Pep 1 to 1 μM (FIG. 10A) or rIL10 (FIG. 10B), the amount of Bet v 1 required to induce the same amount of degranulation was higher than for cells treated with Bet v1 alone (P<0.05). Amount of rBet v 1 (ng/mL) required to induce half the release of β-hexosaminidase using serum from seven birch pollen-allergic donors after treatment with Pep 1 (A) (P<0.05) and rIL10 (B) * P<0.05.

TLR4 signaling pathway [6] = test: TLR4 signaling pathway (SEAP) in HEK cells, peptide pre-treatment then LPS; type: cell-based; conditions: peptide then LPS; 0.005 μM; 12 hours
Procedure: as §1, §2

Substance: Pep 1: synthetic peptide with affinity to the Interleukin-10 receptor, SEQ ID No 01, with disulfide bridges (HACSAVIKSSCGGGS; disulfide 3-11 (inferred))
- activation of the IFN signaling pathway (IFN signaling pathway): activation of the pathway was reduced
- NFkB expression (luciferase) [1]: unable to elicit any response
- activation of the TLR4 pathway (TLR4 signaling pathway [2]; 0.001 μM): activation of the TLR4 pathway was more significantly reduced
- activation of the TLR4 pathway (TLR4 signaling pathway [2]; 0.005 μM): activation of the TLR4 pathway was more significantly reduced
- activation of the TLR4 pathway (TLR4 signaling pathway [2]; 0.01 μM): activation of the TLR4 pathway was more significantly reduced
- activation of the TLR4 pathway (TLR4 signaling pathway [2]; 0.05 μM): activation of the TLR4 pathway was more significantly reduced
- activation of the TLR4 pathway (TLR4 signaling pathway [2]; 0.1 μM): activation of the TLR4 pathway was more significantly reduced
- hydrodynamic radius [3]: 0.82 nm
- NFκB activation (NFκB): able to decrease NFκB activation
- IL-10, IFN-γ, or IL12p70 production (cell line J774; 24 hours of treatment (data not shown)): No interference
- levels of IL-6 (cell line J774; peptide then LPS 24 hours, 1 μM and 10 μM printed beside IL-6, versus LPS alone): significantly reduced
- levels of TNF-α (cell line J774; peptide then LPS 24 hours, 1 μM, 10 μM and 100 μM, versus LPS alone): significantly reduced
- levels of MCP-1 (cell line J774; peptide then LPS 24 hours, versus LPS alone): significantly reduced
- cytokine response to peptide alone (cell line J774; without LPS stimulation (data not shown)): unable to elicit any response
- T cell proliferation [4]: decreased T cell proliferation
- amount of Bet v 1 required to induce the same amount of degranulation [5]: higher
- TLR4 pathway activation (TLR4 signaling pathway [6]): significantly reduced pathway activation
